Active and inactive are the calls of the source. How the calls were made is not given here.
System: M. tuberculosis H37Rv growth inhibition with meropenem
Test: dose response, H37Rv, with and without meropenem (AID 434987);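 further: growth over 7 days at 37 °C before Alamar Blue read on day 9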
[1] = M. tuberculosis H37Rv growth inhibition, measured here: IC50 without meropenem
[2] = M. tuberculosis H37Rv growth inhibition, measured here: IC90 without meropenem
[3] = measured here: IC90 with meropenem

Row | Compound | IC50 | IC50 [1] [µM] | IC90 [2] [µM] | IC90 [3] [µM]
1 | COCCNC(=O)COc1ccc(Oc2ccccc2)cc1 | 49.5 µM (inactive) | > 100 | > 100 | > 100
2 | COc1ccc([N+](=O)[O-])cc1NS(=O)(=O)c1ccc(Cl)c(C(=O)Nc2sc3c(c2C#N)CCCCC3)c1 | > 100 µM (inactive) | > 100 | > 100 | > 100
3 | Cc1cc(C)c(NC(=O)CC(C)(C)C)c(Cl)c1 | 76.4 µM (inactive) | > 100 | > 100 | > 100
4 | COc1ccccc1CNC(=O)c1cc2c(C)nn(Cc3ccc(F)cc3)c2s1 | > 100 µM (inactive) | > 100 | > 100 | > 100
5 | COc1cccc(C(=O)C2CCCN(Cc3ccccn3)C2)c1 (configuration not stated) | 1.46 µM | 16.2 | > 100 | 97.5
6 | O=C(N/N=C/C(Br)=C\c1ccccc1)c1ccc2nc[nH]c2c1 | 30.4 µM | > 100 | > 100 | > 100
7 | O=C(Cn1cnc2sc3c(c2c1=O)CCCC3)NCC(=O)Nc1ccccc1F | 88.3 µM (inactive) | > 100 | > 100 | 95.5
8 | CC(=O)c1ccc(-n2c(C)ccc2-c2ccccc2)cc1 | 20.2 µM | 61.3 | 88.3 | > 100
9 | O=C(c1ccc(-c2ccc(Cl)cc2)o1)N1CCN(S(=O)(=O)c2cccs2)CC1 | 95.2 µM (inactive) | > 100 | > 100 | 99.6
10 | C[C@]12CC[C@@H]3c4ccc(OS(=O)(=O)O)cc4CC[C@H]3[C@@H]1CCC2=O | > 100 µM (inactive) | > 100 | > 100 | > 100
11 | COc1cccc(NC(=S)Nc2cc(C)cc(C)n2)c1 | 6.41 µM | > 100 | > 100 | > 100
12 | CCOC(=O)/C(=N\Nc1ccccc1)c1csc(Nc2ccc(C)cc2)n1 | > 100 µM (inactive) | > 100 | > 100 | > 100
13 | CC1(C)C[C@@H]1C(=O)N/C(=C\CCCCSC[C@H](N)C(=O)O)C(=O)O | > 100 µM (inactive) | > 100 | > 100 | > 100
14 | CC(C)CC(=O)NC(=S)Nc1ccc(N2CCN(C(=O)c3cccs3)CC2)cc1 | > 100 µM (inactive) | > 100 | > 100 | > 100
15 | CCOC(=O)c1sc(NC(=O)CSc2n[nH]c(CC(C)C)n2)nc1C | 19.3 µM (inactive) | 46.5 | > 100 | > 100
16 | COc1ccc(-c2cc(=Nc3ccc(C)cc3)c3ccccc3o2)cc1 | 78.3 µM (inactive) | > 100 | > 100 | 98.3
17 | NS(=O)(=O)c1cccnc1Nc1c(Cl)cccc1Cl | > 100 µM (inactive) | > 100 | > 100 | > 100
18 | COc1cc(/C=C/C(=O)NC(C)(C)C)ccc1OCc1ccccc1 | > 100 µM (inactive) | > 100 | > 100 | > 100
19 | C/C(=N\NC(=O)c1csc2ccccc12)c1ccc(O)cc1 | > 100 µM (inactive) | > 100 | > 100 | > 100
20 | Cc1nnnn1/C(=C\c1ccccc1)C(=O)OCC(=O)Nc1ccc(Cl)cc1F | 17 µM (inactive) | 26.7 | 35.8 | 25.5
21 | N#Cc1cc2c(nc1SCC(=O)Nc1sc3c(c1C#N)CCC3)CCCC2 | > 100 µM (inactive) | > 100 | > 100 | > 100
22 | O=C(CSc1ncn[nH]1)Nc1cccc2ccccc12 | 29.6 µM (inactive) | 50.7 | > 100 | 65
23 | CO/N=C(\C(=O)N[C@@H]1C(=O)N2C(C(=O)O)=C(COC(C)=O)CS[C@H]12)c1csc(N)n1 (stereo in doubt) | 10.3 µM | > 100 | > 100 | 41.7
